Consider two molecules from patent publication US20250387388A1, “COMPOUND AS TRK INHIBITOR AND/OR RET INHIBITOR AND USE THEREOF” (Medinno Pharmaceutical Technology (Zhuhai) Co., Ltd., priority 2022, published 2025).

In assay [1] the test system is atopic dermatitis/eczema in mice. The assay is described as follows: Atopic dermatitis/eczema model in mice (dust mite extract + SEB). Format: in vivo. The note with it: for Number of Scratch Incidents (±SE) / Scratch Duration (±SE) / Skin Erythema, Hemorrhage, Eruption, and Desquamation (Lesion Scoring) (Mean ± SE): Tofacitinib 10 mg/kg.
The subject of another assay is adipocytes. The assay is described as follows: Lipolysis in vitro in adipocytes. In kind it is cell-based, C57BL/6 mouse. Here is the method:
Newly extracted neonatal C57BL/6 mouse skin fibroblasts (specific operational steps can be found in the literature: Cell Reports (2023)/doi: 10.1016/j.celrep.2023.112647) were plated and cultured in petri dishes until the cell density reached the highest and contact inhibition. Differentiation medium (DMEM+10% FBS+1× antibiotic; specific formula can be found in the literature: Cell Reports (2023)/doi: 10.1016/j.celrep.2023.112647) was then added to induce the generation of new adipocytes. […] The control group received an equal volume of DMSO. The transformation of adipocytes was observed using a Leica inverted phase contrast microscope.

The target in a further assay is JAK3 (Homo sapiens (Human), UniProt P52333). As to conditions: reported; cited from earlier work.
In the next assay the target is TRKA (Homo sapiens (Human), UniProt P04629). The note with it: reported; cited from earlier work.
Chain of TRKA (P04629 33-796 limits assumed): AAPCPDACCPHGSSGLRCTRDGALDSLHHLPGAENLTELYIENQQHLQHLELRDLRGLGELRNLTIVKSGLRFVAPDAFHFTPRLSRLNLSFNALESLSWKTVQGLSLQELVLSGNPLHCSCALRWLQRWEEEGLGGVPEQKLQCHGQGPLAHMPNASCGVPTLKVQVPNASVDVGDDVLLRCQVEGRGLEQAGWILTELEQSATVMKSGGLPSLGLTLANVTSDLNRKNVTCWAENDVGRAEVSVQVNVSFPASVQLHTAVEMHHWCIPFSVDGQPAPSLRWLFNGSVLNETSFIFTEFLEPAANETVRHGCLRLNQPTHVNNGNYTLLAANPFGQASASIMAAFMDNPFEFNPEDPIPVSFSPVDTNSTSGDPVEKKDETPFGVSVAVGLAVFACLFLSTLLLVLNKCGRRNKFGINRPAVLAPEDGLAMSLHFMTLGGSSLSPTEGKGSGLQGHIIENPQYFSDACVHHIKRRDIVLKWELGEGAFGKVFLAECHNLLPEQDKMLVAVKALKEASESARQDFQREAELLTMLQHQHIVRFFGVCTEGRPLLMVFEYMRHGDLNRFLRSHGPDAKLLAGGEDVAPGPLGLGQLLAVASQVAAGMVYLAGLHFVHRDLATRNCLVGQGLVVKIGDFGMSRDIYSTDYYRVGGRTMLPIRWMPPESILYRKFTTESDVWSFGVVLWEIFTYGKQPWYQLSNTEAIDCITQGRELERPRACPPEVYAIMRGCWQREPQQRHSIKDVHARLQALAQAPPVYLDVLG

Chain of JAK3 (P52333 whole entry, species assumed): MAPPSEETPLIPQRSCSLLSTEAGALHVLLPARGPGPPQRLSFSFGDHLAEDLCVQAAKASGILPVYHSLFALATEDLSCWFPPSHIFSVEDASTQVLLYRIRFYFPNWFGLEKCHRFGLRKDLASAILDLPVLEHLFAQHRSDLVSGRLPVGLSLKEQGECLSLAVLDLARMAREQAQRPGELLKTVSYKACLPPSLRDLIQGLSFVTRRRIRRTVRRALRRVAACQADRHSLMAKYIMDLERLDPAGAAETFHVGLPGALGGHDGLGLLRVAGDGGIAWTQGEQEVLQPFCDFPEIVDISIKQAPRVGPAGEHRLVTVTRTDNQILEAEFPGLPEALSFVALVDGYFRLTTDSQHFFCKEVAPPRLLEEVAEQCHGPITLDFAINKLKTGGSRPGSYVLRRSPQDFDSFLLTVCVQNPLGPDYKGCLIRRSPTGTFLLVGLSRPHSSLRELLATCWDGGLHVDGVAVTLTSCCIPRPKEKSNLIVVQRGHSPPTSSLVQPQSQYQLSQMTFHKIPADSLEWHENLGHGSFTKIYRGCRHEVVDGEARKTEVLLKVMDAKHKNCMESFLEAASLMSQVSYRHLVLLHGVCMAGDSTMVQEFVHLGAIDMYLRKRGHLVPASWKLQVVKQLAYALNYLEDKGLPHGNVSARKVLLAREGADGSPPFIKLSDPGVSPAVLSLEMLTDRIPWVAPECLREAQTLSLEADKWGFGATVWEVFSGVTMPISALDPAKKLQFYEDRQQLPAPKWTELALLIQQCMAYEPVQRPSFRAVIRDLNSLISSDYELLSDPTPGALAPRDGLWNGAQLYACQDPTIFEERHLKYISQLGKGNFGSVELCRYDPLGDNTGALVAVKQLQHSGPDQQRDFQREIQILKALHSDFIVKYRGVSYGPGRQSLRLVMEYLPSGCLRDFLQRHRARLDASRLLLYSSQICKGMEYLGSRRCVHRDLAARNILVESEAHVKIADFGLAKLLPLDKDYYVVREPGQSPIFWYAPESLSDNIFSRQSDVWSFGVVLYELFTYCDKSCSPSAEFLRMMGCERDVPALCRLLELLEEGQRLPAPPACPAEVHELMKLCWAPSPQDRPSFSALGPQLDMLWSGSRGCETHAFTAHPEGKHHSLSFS

Turning to `C[C@@H]1CCN(C(=O)CC#N)C[C@@H]1N(C)c1ncnc2[nH]ccc12` [Tofacitinib, reference compound], the “Number of Scratch Incidents (±SE)” value in assay [1] (Day 1) turned out to be 17.75 ± 0.86; in assay [1] (Day 14), 26.7 ± 1.96. The “Scratch Duration (±SE)” value in assay [1] (Day 1) came to 278.25 ± 50.09; in assay [1] (Day 14), 217.5 ± 47.85. Moreover, the “Skin Erythema, Hemorrhage, Eruption, and Desquamation (Lesion Scoring) (Mean ± SE)” value in assay [1] (Day 1) was found to be 4.38 ± 0.46; in assay [1] (Day 4), 2.63 ± 0.26; in assay [1] (Day 7), 2.00 ± 0.33; in assay [1] (Day 14) it was 1.50 ± 0.19. The “Behavioral analysis (scratch incidents and scratch duration)” value in assay [1] (MDI-1228 high-dose (3% gel), tofacitinib 10 mg/kg) is on record as “did not show significant effects in the behavioral analysis”. Besides, the “Lipolysis of differentiated mature adipocytes (phase contrast images)” value in the assay with adipocytes (5 μM) is “does not promote lipolysis”. For the same molecule, in the assay with adipocytes (summary statement), the “Adipocyte lipolysis in vitro” value is on record as “no similar effect”.
For the molecule Pegcantratinib, the “Inhibition of JAK3” value at JAK3 is listed as “capable of inhibiting”. Moreover, at TRKA, the “Inhibition of TRKA” value is on record as “capable of inhibiting”.
